Laboratory results reported in publication PMC10587871 (Bioconjugate Chemistry, 2023).
Where a SMILES comes first, the peptide text is derived from it. The star is where a group is joined. 5FAM = O=C1OC2(c3ccc(O)cc3Oc3cc(O)ccc32)c2ccc(C(=O)*)cc21

Tested on: MM6 cell line
Conditions: 5(6)-FAM-labeled peptides 10 μM, MM6 cells, 2 h, flow cytometry FITC channel, trypan blue quenching

SMILES | Internalization (cellular uptake) profile
C[C@H](NC(=O)[C@H](C)NC(=O)[C@H](CCCCN)NC(=O)[C@H](CCCCN)NC(=O)[C@H](C)NC(=O)[C@@H]1CCCN1C(=O)[C@H](C)NC(=O)[C@H](CCCCN)NC(=O)c1ccc2c(c1)C(=O)OC21c2ccc(O)cc2Oc2cc(O)ccc21)C(=O)N[C@@H](C)C(=O)N[C@@H](CCCCN)C(N)=O [HBHA (185–194)] (5FAM-KAPAKKAAAK-NH2) | significant cellular uptake
CC[C@H](C)[C@H](NC(=O)[C@H](CCCCN)NC(=O)[C@H](CCC(=O)O)NC(=O)[C@H](Cc1ccc(O)cc1)NC(=O)[C@@H]1CCCN1C(=O)[C@H](CC(=O)O)NC(=O)c1ccc2c(c1)C(=O)OC21c2ccc(O)cc2Oc2cc(O)ccc21)C(=O)NCC(=O)N[C@@H](C)C(=O)N[C@@H](CCC(=O)O)C(=O)N[C@@H](CC(C)C)C(=O)N[C@H](C(=O)N[C@@H](CCCCN)C(N)=O)C(C)C [Grol2 (63–78)] | highest cell internalization among MHC II binding epitopes
CC(C)[C@H](NC(=O)[C@H](C)NC(=O)[C@@H](NC(=O)CNC(=O)[C@H](C)NC(=O)c1ccc2c(c1)C(=O)OC21c2ccc(O)cc2Oc2cc(O)ccc21)[C@@H](C)O)C(=O)N[C@@H](CCC(N)=O)C(=O)N[C@@H](CC(=O)O)C(=O)N[C@@H](CO)C(=O)N[C@@H](CCCNC(=N)N)C(=O)N[C@@H](CO)C(=O)N[C@@H](Cc1c[nH]cn1)C(=O)N[C@H](C(=O)N[C@@H](Cc1ccc(O)cc1)C(=O)N[C@@H](C)C(=O)N[C@@H](Cc1c[nH]cn1)C(N)=O)C(C)C [Rv1733c (63–77)] (5FAM-AGTAVQDSRSHVYAH-NH2) | weak internalization profile
CC[C@H](C)[C@H](NC(=O)[C@H](C)NC(=O)[C@H](CCC(N)=O)NC(=O)[C@H](Cc1c[nH]c2ccccc12)NC(=O)[C@H](CC(C)C)NC(=O)[C@H](CCCCN)NC(=O)[C@H](CCCCN)NC(=O)[C@@H](NC(=O)[C@H](Cc1ccc(O)cc1)NC(=O)[C@H](C)NC(=O)c1ccc2c(c1)C(=O)OC21c2ccc(O)cc2Oc2cc(O)ccc21)[C@@H](C)O)C(=O)N[C@@H](CCCNC(=N)N)C(=O)N[C@@H](C)C(=O)N[C@@H](CCC(N)=O)C(=O)N[C@@H](CC(=O)O)C(=O)N[C@H](C(N)=O)C(C)C [RpfA (377–391)] (5FAM-AYTKKLWQAIRAQDV-NH2) | weak internalization profile
